Measured values as given in ChEMBL document CHEMBL5053493, “Design and synthesis of novel orally selective and type II pan-TRK inhibitors to overcome mutations by property-driven optimization” (Eur J Med Chem, 2021).
pIC50: −log10 of the molar value. Blank lines part the entries; values can stand above or below the compound they belong to.

What was measured:
[1] = Inhibition of TRKA F589L mutant (unknown origin) in presence of [gamma-33P]ATP by hotspot kinase assay; parameters: species or system Homo sapiens
[2] = Inhibition of TRKC G623R mutant (unknown origin) in presence of [gamma-33P]ATP by hotspot kinase assay; parameters: species or system Homo sapiens
[3] = Inhibition of TRKC G696A mutant (unknown origin) in presence of [gamma-33P]ATP by hotspot kinase assay; parameters: species or system Homo sapiens
[4] = Inhibition of TRKC L686M mutant (unknown origin) in presence of [gamma-33P]ATP by hotspot kinase assay; parameters: species or system Homo sapiens
[5] = Inhibition of TRKA G595R/A608D double mutant (unknown origin) bin presence of [gamma-33P]ATP by hotspot kinase assay; parameters: species or system Homo sapiens
[6] = Inhibition of TRKA […]/G667C double mutant (unknown origin) in presence of [gamma-33P]ATP by hotspot kinase assay; parameters: species or system Homo sapiens
[7] = Inhibition of TRKA G595R/L657M double mutant(unknown origin) in presence of [gamma-33P]ATP by hotspot kinase assay; parameters: species or system Homo sapiens
[8] = Inhibition of TRKA L657M mutant (unknown origin) in presence of [gamma-33P]ATP by hotspot kinase assay; parameters: species or system Homo sapiens
KM12 = experiment: Antiproliferative activity against human KM12 cells assessed as reduction in cell viability measured after 72 hrs by MTS assay
[9] = biological target: T1, High affinity nerve growth factor receptor (Homo sapiens, UniProt P04629)
[10] = biological target: BDNF/NT-3 growth factors receptor (Homo sapiens, UniProt Q16620); experiment: Inhibition of TRKB (unknown origin)
[11] = biological target: NT-3 growth factor receptor (Homo sapiens, UniProt Q16288); experiment: Inhibition of TRKC (unknown origin)
Aurora kinase A = biological target: T2, Aurora kinase A (Homo sapiens, UniProt O14965); experiment: biochemical
T2 sequence (O14965 whole entry): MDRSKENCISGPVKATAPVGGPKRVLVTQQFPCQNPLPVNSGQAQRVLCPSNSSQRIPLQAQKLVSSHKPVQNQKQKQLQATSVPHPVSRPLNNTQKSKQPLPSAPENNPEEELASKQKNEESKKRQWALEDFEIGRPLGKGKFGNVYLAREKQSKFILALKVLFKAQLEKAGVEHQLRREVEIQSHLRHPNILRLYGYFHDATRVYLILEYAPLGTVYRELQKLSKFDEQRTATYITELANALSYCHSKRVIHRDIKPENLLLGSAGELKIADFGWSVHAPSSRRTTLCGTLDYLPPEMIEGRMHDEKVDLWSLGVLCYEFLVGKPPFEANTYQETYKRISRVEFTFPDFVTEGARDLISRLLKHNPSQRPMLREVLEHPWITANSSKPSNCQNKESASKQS
Description: Inhibition of GST-tagged AURA Ser123 to 401 residues) (unknown origin) expressed in Sf9 insect cells using tetra-LLRASLG peptide as substrate incubated for 90 mins in presence of ATP

Aurora kinase B = Aurora kinase B (Homo sapiens, UniProt Q96GD4); experiment: Inhibition of recombinant full length His-tagged human AURB expressed in baculovirus expression system using tetra-LLRASLG peptide as substrate incubated for 180 mins in presence of ATP; parameters: species or system Sf9
[12] = biological target: T1, High affinity nerve growth factor receptor; remark: listed apart in the source
Description: Inhibition of wildtype human TRKA using poly (Glu,Tyr) 4:1 as substrate in presence of [gamma-33P]ATP by hotspot kinase assay

T1 sequence (P04629 whole entry): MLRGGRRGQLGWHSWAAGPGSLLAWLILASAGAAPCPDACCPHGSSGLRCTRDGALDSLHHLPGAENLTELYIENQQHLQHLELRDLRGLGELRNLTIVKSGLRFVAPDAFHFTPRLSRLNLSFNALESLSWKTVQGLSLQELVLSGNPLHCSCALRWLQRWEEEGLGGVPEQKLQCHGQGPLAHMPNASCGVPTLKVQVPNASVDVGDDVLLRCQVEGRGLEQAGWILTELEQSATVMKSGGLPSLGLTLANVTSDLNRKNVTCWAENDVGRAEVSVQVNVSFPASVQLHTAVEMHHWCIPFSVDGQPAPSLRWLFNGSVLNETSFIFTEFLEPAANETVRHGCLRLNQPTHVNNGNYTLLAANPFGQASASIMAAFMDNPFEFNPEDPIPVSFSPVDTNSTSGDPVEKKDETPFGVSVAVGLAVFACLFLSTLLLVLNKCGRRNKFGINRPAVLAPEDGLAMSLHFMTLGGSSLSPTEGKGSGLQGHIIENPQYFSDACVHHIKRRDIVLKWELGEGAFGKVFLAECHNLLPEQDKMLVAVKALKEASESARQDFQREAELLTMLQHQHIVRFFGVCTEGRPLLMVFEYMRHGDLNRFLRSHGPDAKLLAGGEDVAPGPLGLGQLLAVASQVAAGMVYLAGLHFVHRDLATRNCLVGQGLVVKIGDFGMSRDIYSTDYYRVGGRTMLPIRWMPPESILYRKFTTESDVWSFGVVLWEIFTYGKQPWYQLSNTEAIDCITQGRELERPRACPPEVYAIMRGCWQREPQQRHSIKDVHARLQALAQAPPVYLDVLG
Chain of Aurora kinase B (Q96GD4 whole entry): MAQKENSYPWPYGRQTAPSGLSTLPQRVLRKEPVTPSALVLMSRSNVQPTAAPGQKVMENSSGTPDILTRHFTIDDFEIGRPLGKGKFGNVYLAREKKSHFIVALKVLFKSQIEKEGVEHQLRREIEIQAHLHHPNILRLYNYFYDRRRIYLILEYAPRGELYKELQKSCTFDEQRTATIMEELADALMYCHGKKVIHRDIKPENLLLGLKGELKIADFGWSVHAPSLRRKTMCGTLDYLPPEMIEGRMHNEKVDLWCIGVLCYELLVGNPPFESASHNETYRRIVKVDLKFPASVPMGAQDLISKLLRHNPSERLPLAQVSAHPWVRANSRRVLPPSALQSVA
Chain of BDNF/NT-3 growth factors receptor (Q16620 whole entry): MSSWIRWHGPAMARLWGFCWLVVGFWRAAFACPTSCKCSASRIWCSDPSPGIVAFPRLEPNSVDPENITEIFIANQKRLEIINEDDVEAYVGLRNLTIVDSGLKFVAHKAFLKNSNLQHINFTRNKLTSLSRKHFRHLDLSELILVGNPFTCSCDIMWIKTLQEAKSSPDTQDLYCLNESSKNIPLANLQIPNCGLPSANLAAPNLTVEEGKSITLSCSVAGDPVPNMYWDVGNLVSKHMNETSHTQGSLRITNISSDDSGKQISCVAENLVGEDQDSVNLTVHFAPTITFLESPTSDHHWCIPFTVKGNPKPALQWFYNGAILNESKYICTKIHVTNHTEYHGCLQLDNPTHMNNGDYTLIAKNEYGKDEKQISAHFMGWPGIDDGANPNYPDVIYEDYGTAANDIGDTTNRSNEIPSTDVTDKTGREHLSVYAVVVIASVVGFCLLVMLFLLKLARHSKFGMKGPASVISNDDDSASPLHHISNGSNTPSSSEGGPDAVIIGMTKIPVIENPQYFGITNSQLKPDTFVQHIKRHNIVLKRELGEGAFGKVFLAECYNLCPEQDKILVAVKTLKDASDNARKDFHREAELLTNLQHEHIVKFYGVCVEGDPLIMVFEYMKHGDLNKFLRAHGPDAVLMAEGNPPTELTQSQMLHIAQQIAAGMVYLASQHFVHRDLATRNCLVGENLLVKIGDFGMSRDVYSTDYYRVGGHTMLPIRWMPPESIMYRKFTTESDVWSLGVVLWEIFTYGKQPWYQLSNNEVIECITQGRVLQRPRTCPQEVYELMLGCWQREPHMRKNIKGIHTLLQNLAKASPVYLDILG
Chain of NT-3 growth factor receptor (Q16288 whole entry): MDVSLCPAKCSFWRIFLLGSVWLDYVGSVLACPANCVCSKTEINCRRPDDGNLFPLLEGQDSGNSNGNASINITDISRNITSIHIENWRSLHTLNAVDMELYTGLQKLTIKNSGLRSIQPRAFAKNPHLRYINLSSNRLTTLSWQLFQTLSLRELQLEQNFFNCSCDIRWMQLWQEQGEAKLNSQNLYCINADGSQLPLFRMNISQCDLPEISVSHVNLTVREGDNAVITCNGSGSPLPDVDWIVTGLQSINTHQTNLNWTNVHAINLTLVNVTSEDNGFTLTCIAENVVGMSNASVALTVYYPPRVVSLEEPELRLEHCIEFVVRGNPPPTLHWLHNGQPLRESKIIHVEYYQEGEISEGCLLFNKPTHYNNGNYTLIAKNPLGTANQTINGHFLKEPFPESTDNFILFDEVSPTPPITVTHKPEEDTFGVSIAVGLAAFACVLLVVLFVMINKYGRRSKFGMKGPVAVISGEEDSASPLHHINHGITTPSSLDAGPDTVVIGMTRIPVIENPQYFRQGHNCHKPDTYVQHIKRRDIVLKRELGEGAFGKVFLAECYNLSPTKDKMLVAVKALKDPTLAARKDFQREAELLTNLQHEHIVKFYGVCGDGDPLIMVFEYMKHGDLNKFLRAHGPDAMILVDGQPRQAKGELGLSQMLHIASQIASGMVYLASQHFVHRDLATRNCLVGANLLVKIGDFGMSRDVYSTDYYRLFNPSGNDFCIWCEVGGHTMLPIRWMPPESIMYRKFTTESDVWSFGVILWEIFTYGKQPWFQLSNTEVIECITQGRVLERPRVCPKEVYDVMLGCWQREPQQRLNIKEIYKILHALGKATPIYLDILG

pIC50 [1]: 7.28
pIC50 [2]: 6.68
pIC50 [3]: 8.48
pIC50 [4]: 6.82
pIC50 [5]: 7.10
pIC50 [6]: < 5.00
pIC50 [7]: 5.60
pIC50 [8]: 7.68
Structure (SMILES): O=C(Nc1cnn2ccc(N3CCC[C@H]3c3cc(F)ccc3F)nc12)N1CC[C@@H](O)C1

pIC50 [9]: 7.43
pIC50 [10]: 8.75
pIC50 [11]: 9.68
pIC50 (Aurora kinase A): 8.25
Structure (SMILES): CN(C)CCCOc1ccc2c(NCCc3cnc(NC(=O)Nc4cccc(Cl)c4)s3)ncnc2c1
pIC50 (KM12; Homo sapiens, KM12, 72 h): < 5.00

pIC50 (Aurora kinase A): 6.47
Structure (SMILES): CCOc1cc2ncnc(Nc3ccc(NC(=O)Nc4ccccc4)cc3)c2cc1F
pIC50 (KM12; Homo sapiens, KM12, 72 h): 5.69

Structure (SMILES): CCOc1cc2c(NCCc3ccc(NC(=O)Nc4ccccc4)cc3)ncnc2cc1F
pIC50 (KM12; km12): 6.49
pIC50 (Aurora kinase A): 7.18

pIC50 (Aurora kinase A): 6.97
Structure (SMILES): CCOc1cc2c(NCCc3ccc(NC(=O)Nc4cccc(Cl)c4)cc3)ncnc2cc1F

pIC50 (Aurora kinase A): 6.81
Structure (SMILES): CCOc1cc2ncnc(Nc3ccc(NC(=O)Nc4cccc(Cl)c4)cc3)c2cc1F

pIC50 (Aurora kinase B): 6.29
pIC50 (Aurora kinase A): 6.45
Structure (SMILES): CCOc1cc2ncnc(NCCc3ccc(NC(=O)Nc4cc(Cl)ccc4OC)cc3)c2cc1F

pIC50 (Aurora kinase A): 7.64
Structure (SMILES): COc1cc2ncnc(NCCc3ccc(NC(=O)Nc4ccccc4)cc3)c2cc1OC

pIC50 (Aurora kinase A): 8.22
Structure (SMILES): CCOc1cc2ncnc(NCCc3ccc(NC(=O)Nc4cccc(F)c4)cc3)c2cc1F

Structure (SMILES): O=C(Nc1ccccc1)Nc1ccc(CCNc2ncnc3cc(F)c(F)cc23)cc1
pIC50 (KM12; Homo sapiens, KM12, 72 h): 5.82

pIC50 (Aurora kinase A): 7.20
Structure (SMILES): CCOc1cc2ncnc(NCCc3ccc(NC(=O)Nc4cccc(C(F)(F)F)c4)cc3)c2cc1F

pIC50 (Aurora kinase A): 8.70
Structure (SMILES): CCOc1cc2ncnc(NCc3ccc(NC(=O)Nc4cccc(Cl)c4)cc3)c2cc1F
pIC50 (KM12; Homo sapiens, KM12, 72 h): 5.90

Structure (SMILES): CCOc1cc2ncnc(NCCc3ccc(NC(=O)Nc4ccccc4)cc3)c2cc1F
pIC50 (KM12; km12): 6.49
pIC50 [9]: < 5.05
pIC50 (Aurora kinase A): 7.53

pIC50 (Aurora kinase A): 6.85
Structure (SMILES): O=C(Nc1ccccc1)Nc1ccc(CCNc2ncnc3ccccc23)cc1

pIC50 (Aurora kinase A): 7.57
Structure (SMILES): CCOc1cc2ncnc(NCCc3ccc(NC(=O)Nc4cccc(Cl)c4)cc3)c2cc1F

pIC50 (Aurora kinase B): 6.26
pIC50 (Aurora kinase A): 6.34
Structure (SMILES): CCOc1cc2ncnc(NCCc3ccc(NC(=O)Nc4cc(C(F)(F)F)ccc4OC)cc3)c2cc1F

pIC50 (Aurora kinase A): 6.46
Structure (SMILES): CCOc1cc2ncnc(NCCc3ccc(NC(=O)Nc4ccc(Cl)c(C(F)(F)F)c4)cc3)c2cc1F

pIC50 (Aurora kinase A): 7.36
Structure (SMILES): CCOc1cc2ncnc(NCCc3ccc(NC(=O)Nc4ccc(F)c(Cl)c4)cc3)c2cc1F

pIC50 (Aurora kinase A): 8.10
Structure (SMILES): CCOc1cc2ncnc(NCc3ccc(NC(=O)Nc4ccccc4)cc3)c2cc1F
pIC50 (KM12; Homo sapiens, KM12, 72 h): 5.62

pIC50 [12]: 7.14
Structure (SMILES): COc1cc2nccc(Oc3ccc(NC(=O)C4(C(=O)Nc5ccc(F)cc5)CC4)cc3)c2cc1OC [CABOZANTINIB]

pIC50 [12]: 8.53
Structure (SMILES): COc1cc2c(Oc3ccc(NC(=O)C4(C(=O)Nc5ccc(F)cc5)CC4)cc3F)ccnc2cc1OCCCN1CCOCC1 [FORETINIB]
